Data taken from article PMC7072329, “Discovery of Kynurenines Containing Oligopeptides as Potent Opioid Receptor Agonists” (Biomolecules, 2020).
Where a SMILES comes first, the peptide text is derived from it. [ ]: non-standard residue; d: D form. Kyn = Nc1ccccc1C(=O)C[C@H](N)C(=O)O

Tested on: CD-1 male mice
Test: formalin test
Assay type: in vivo
Details: s.c. in hind paw, 100 μg/20 μL, 15 min before formalin
Description: In our experiments, we used CD-1 male mice (Harlan, Italy, 25–30 g) maintained in colony, housed in cages (7 mice per cage) under standard light/dark cycle (from 7:00 a.m. to 7:00 p.m.), temperature (21 ± 1 °C) and relative humidity (60% ± 10%) for at least 1 week. Food and water were available ad libitum. The Service for Biotechnology and Animal Welfare of the Istituto Superiore di Sanità and the Italian Ministry of Health authorized the experimental protocol according to Legislative Decree 26/14.
DMSO was purchased from Merck (Rome, Italy). Peptides solutions were freshly prepared using saline containing 0.9% NaCl and DMSO in the ratio DMSO/saline 1:5 v/v every experimental day. These solutions were injected at a volume of 10 μL/mouse for intracerebroventricular (i.c.v.) administrations or at a volume of 20 μL/mouse for subcutaneous administrations.
In the formalin test, the injection of a dilute solution of formalin (1%, 20 μL/paw) into the dorsal surface of the mouse hind paw evoked biphasic nociceptive behavioral responses, such as licking, biting the injected paw, or both, occurring from 0 to 10 min after formalin injection (the early phase) and a prolonged phase, occurring from 15 to 40 min (the late phase). Before the test, mice were individually placed in a Plexiglas observation cage (30 × 14 × 12 cm) for one hour, to acclimatize to the testing environment. The total time the animal spent licking or biting its paw during the early and late phase of formalin-induced nociception was recorded.
Experimental data were expressed as mean ± s.e.m. In the tail flick test, significant differences among the groups were evaluated with two-way ANOVA followed by Sidak’s multiple comparisons test. Formalin test data were analyzed by using one-way ANOVA, followed by Holm–Sidak’s multiple comparisons test. […] Statistical significance was set at p < 0.05. The data and statistical analysis comply with the recommendations on experimental design and analysis in pharmacology.
Early phase represents the formalin-induced nociceptive behavior recorded from 0 to 10 min after formalin injection; late phase is for the formalin-induced nociceptive behavior recorded from 15 to 40 min after formalin injection. V is for vehicle-treated animals. Statistical analysis: one-way ANOVA followed by Holm–Sidak’s multiple comparisons test. ** is for p < 0.01 and *** is for p < 0.001 vs. V. n = 7.

## C[C@@H](NC(=O)[C@@H](N)Cc1ccc(O)cc1)C(=O)NCC(=O)N[C@@H](Cc1ccccc1)C(=O)N[C@@H](CC(=O)c1ccccc1N)C(N)=O [Peptide K6] (H-Y[dA]GF[Kyn]-NH2)
0 to 10 min
  formalin-induced nociceptive behavior, early phase: able to reduce the nociceptive response to formalin in the early phase
15 to 40 min
  formalin-induced nociceptive behavior, late phase: light but not significant reduction
